Experimental findings from PubChem BioAssay (NCI) are described below.

“And” between values parts separate entries of the source, which are not always exact repeats. Identical values can stand only once.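 48-hour exposure; five concentrations; linearly interpolated endpoints. GI50 = concentration required for 50% inhibition of growth. At the TGI there is no net growth.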

For the first experiment, the system named is SK-MEL-5 melanoma. The experiment is described as follows: inhibition of tumour cell growth, NCI panel, 48 h.
Take `O=C(NCCOCCOCCNc1cccc2c1C(=O)N(C1CCCNC1=O)C2=O)c1cc2c(o1)C(=O)c1ccccc1C2=O` (stereo not drawn): the GI50 is 0.707 µM and the TGI came to 1.99 µM.
For `O=C(CN1CCOCC1)Nc1ccc(Cn2nnc3c2C(=O)c2nnn(Cc4ccc(NC(=O)CN5CCOCC5)cc4)c2C3=O)cc1`, in that order: 0.249 µM and 0.877 µM.
`CCCCC/C(C=C(C#N)C#N)=C/c1ccccc1`: the GI50 is 2.68 µM and the TGI was determined as 14.2 µM.
`CC1CCC2(C(=O)O)CCC3(C)C(=CCC4C5(C)CC(O)C(O)C(C)(CO)C5C(O)CC43C)C2C1C` (stereo not drawn) displayed a TGI of 87.2 µM.
On the same count and under the same terms, as for `COc1cnc2cc(C(=O)O)c3c([N+](=O)[O-])cccc3c2c1`, the figure is more than 100 µM.
`Cc1ccc(S(=O)(=O)N(CCOc2ccc(/C(N)=N/Cl)cc2)CCOc2ccc(/C(N)=N\Cl)cc2)cc1`: the GI50 is 10.3 µM and the TGI is 26.8 µM.
As to `COc1ccc(C2=NN(C(=O)c3cc(OC)c(OC)c(OC)c3)C(c3ccc(C#N)cc3)C2)cc1OC` (stereo not drawn), the GI50 was 0.483 µM and the TGI amounted to 6.67 µM.
For `CCOc1cccc(/C=N/NC(=O)c2ccccc2Nc2ccnc(C(F)(F)F)c2)c1O`, in that order: 0.5 µM and 4.91 µM.
Turning to `CCOC(=O)/C=C(/C(=O)OCC)n1cc(Cl)c(=O)n(CC(=O)OCC)c1=O`, the TGI is 9.28 µM and 30.6 µM.

The next experiment deals with SK-OV-3 ovarian. Put plainly: inhibition of tumour cell growth, NCI panel, 48 h.
As to `COc1cccc(/C=N/NC(=O)c2ccccc2Nc2ccnc(C(F)(F)F)c2)c1O`, the GI50 is 0.583 µM and the TGI came to 31 µM.
For `Cc1ccc(CS/C(=C\c2ccc([N+](=O)[O-])cc2)C(=O)c2ccc(F)cc2)cc1`, in that order: 17.7 µM and more than 100 µM.
Take `CCOC(=O)CCc1cc(=O)oc2cc(O)cc(O)c12`: the TGI was more than 100 µM.
For the compound `COC(=O)c1cc2c3ccccc3[nH]c2c2ncccc12`, the GI50 is 43.3 µM and the TGI was more than 100 µM.
In the case of `CNC(=O)OCc1c(COC(=O)NC)c(-c2ccc(Cl)c(Cl)c2)n2c1SCC2`, the TGI amounted to 28.1 µM.
Consider `C[C@]12CC[C@H](O)CC1=CC[C@@H]1[C@@H]2CC[C@]2(C)C(c3cccnc3)=CC[C@@H]12`, for which the GI50 is more than 33.8 µM and the TGI is more than 100 µM.
Taken in the same sequence, the figures for `Cc1ccc2c(c1)C(=O)/C(=C/c1ncc([N+](=O)[O-])n1C)O2` were 2.53 µM and 7.24 µM.
Turning to `CC1OC(n2cc(F)c(=O)[nH]c2=O)CCC1O` (stereo not drawn), the TGI is more than 100 µM.
As to `O=C(NCCOCCOCCNc1cccc2c1C(=O)N(C1CCCNC1=O)C2=O)c1cc2c(o1)C(=O)c1ccccc1C2=O` (stereo not drawn), the GI50 was 2.87 µM and the TGI came out at 7.93 µM.
Taken in the same sequence, the figures for `O=C(CN1CCOCC1)Nc1ccc(Cn2nnc3c2C(=O)c2nnn(Cc4ccc(NC(=O)CN5CCOCC5)cc4)c2C3=O)cc1` were 2.68 µM and 8.28 µM.
Taken in the same sequence, the figures for `CCCCC/C(C=C(C#N)C#N)=C/c1ccccc1` were 7.87 µM and 23.5 µM.
The compound `CC1CCC2(C(=O)O)CCC3(C)C(=CCC4C5(C)CC(O)C(O)C(C)(CO)C5C(O)CC43C)C2C1C` (stereo not drawn) had a TGI of more than 100 µM.
Consider `COc1cnc2cc(C(=O)O)c3c([N+](=O)[O-])cccc3c2c1`, for which the TGI is more than 100 µM.
`Cc1ccc(S(=O)(=O)N(CCOc2ccc(/C(N)=N/Cl)cc2)CCOc2ccc(/C(N)=N\Cl)cc2)cc1`: the GI50 was 83.3 µM and the TGI was more than 100 µM.
Taken in the same sequence, the figures for `COc1ccc(C2=NN(C(=O)c3cc(OC)c(OC)c(OC)c3)C(c3ccc(C#N)cc3)C2)cc1OC` (stereo not drawn) were 0.872 µM and 8.32 µM.
For `CCOc1cccc(/C=N/NC(=O)c2ccccc2Nc2ccnc(C(F)(F)F)c2)c1O`, in that order: 0.676 µM and 40.5 µM.
For `CCOC(=O)/C=C(/C(=O)OCC)n1cc(Cl)c(=O)n(CC(=O)OCC)c1=O`, in that order: 41.4 µM and more than 100 µM.

For a further experiment, the system named is SNB-75 CNS. The experiment is described as follows: inhibition of tumour cell growth, NCI panel, 48 h.
Consider `COc1cccc(/C=N/NC(=O)c2ccccc2Nc2ccnc(C(F)(F)F)c2)c1O`, for which the GI50 is 1.62 µM and the TGI was more than 76.5 µM.
For `Cc1ccc(CS/C(=C\c2ccc([N+](=O)[O-])cc2)C(=O)c2ccc(F)cc2)cc1`, in that order: 19.2 µM and 71.8 µM.
In the case of `CCOC(=O)CCc1cc(=O)oc2cc(O)cc(O)c12`, the TGI is more than 100 µM.
`COC(=O)c1cc2c3ccccc3[nH]c2c2ncccc12`: the GI50 was 17.3 µM and the TGI turned out to be 65.3 µM.
In turn, `CNC(=O)OCc1c(COC(=O)NC)c(-c2ccc(Cl)c(Cl)c2)n2c1SCC2` yielded a TGI of 25.1 µM.
For the compound `C[C@]12CC[C@H](O)CC1=CC[C@@H]1[C@@H]2CC[C@]2(C)C(c3cccnc3)=CC[C@@H]12`, the GI50 was 7.69 µM and the TGI was more than 48.7 µM.
On to `Cc1ccc2c(c1)C(=O)/C(=C/c1ncc([N+](=O)[O-])n1C)O2`, for which the GI50 is 3.14 µM and the TGI was determined as 22.8 µM.
Compound `CC1OC(n2cc(F)c(=O)[nH]c2=O)CCC1O` (stereo not drawn) returned a TGI of more than 100 µM.
On to `O=C(NCCOCCOCCNc1cccc2c1C(=O)N(C1CCCNC1=O)C2=O)c1cc2c(o1)C(=O)c1ccccc1C2=O` (stereo not drawn), for which the GI50 was 2.65 µM and the TGI was found to be 4.61 µM.
For `O=C(CN1CCOCC1)Nc1ccc(Cn2nnc3c2C(=O)c2nnn(Cc4ccc(NC(=O)CN5CCOCC5)cc4)c2C3=O)cc1`, the GI50 is 1.66 µM and the TGI was 3.04 µM.
Taken in the same sequence, the figures for `CCCCC/C(C=C(C#N)C#N)=C/c1ccccc1` were 12.4 µM and 27.7 µM.
`CC1CCC2(C(=O)O)CCC3(C)C(=CCC4C5(C)CC(O)C(O)C(C)(CO)C5C(O)CC43C)C2C1C` (stereo not drawn) displayed a TGI of 79.7 µM.
Take `COc1cnc2cc(C(=O)O)c3c([N+](=O)[O-])cccc3c2c1`: the TGI was more than 100 µM.
`Cc1ccc(S(=O)(=O)N(CCOc2ccc(/C(N)=N/Cl)cc2)CCOc2ccc(/C(N)=N\Cl)cc2)cc1`: the GI50 is 4.92 µM and the TGI came to 20.1 µM.
Turning to `COc1ccc(C2=NN(C(=O)c3cc(OC)c(OC)c(OC)c3)C(c3ccc(C#N)cc3)C2)cc1OC` (stereo not drawn), the GI50 was 0.586 µM and the TGI was 19.9 µM.
In the case of `CCOc1cccc(/C=N/NC(=O)c2ccccc2Nc2ccnc(C(F)(F)F)c2)c1O`, the GI50 was 2.09 µM and the TGI is more than 77.9 µM.
Turning to `CCOC(=O)/C=C(/C(=O)OCC)n1cc(Cl)c(=O)n(CC(=O)OCC)c1=O`, the GI50 was 16.6 µM; the TGI is 13 µM and 33.6 µM.
